Patent US9663516B2, “Bicyclic-pyrimidinedione compounds” (MyoKardia, Inc., priority 2014, dated 2017)

Key:
[1] = test system: adult rat ventricular myocytes; assay: Cardiomyocyte contractility assay (fractional shortening, IonOptix edge detection); type: cell-based; details: Ventricular myocyte, 1 Hz pacing; for inhibition at 0.3 µM: 0.3 μM compound; for inhibition at 1 µM: 1.0 μM compound; for inhibition at 0.1 µM: 0.1 μM compound
Method: Contractility of adult rat ventricular myocytes is determined by edge detection with an IonOptix contractility system. Aliquots of myocytes in Tyrode buffer (137 mM NaCl, 3.7 mM KCL, 0.5 mM MgCl2, 1.5 mM CaCl2, 4 mM HEPES, 11 mM glucose) are placed in a perfusion chamber (Series 20 RC-27NE; Warner Instruments), allowed to adhere to the coverslip, and then perfused with 37° C. Tyrode buffer. Myocytes are filed stimulated at 1 Hz and 10V. Only myocytes with clear striations, quiescent prior to pacing, with a cell length of 120-180 microns, a basal fractional shortening equal to 3-8% of the cell length, and a contraction velocity greater than 100 microns per second are used for contractility experiments. To determine the response to compounds, myocytes are first perfused for 60 seconds with Tyrodes buffer followed by 5 minutes of compound and a 140 second washout with Tyrodes buffer. Data is continuously recorded using IonOptix software. Contractility data is analyzed using Ionwizard software (IonOptix). For each cell, 10-20 contractility transients were averaged and compared under basal (no compound) and compound-treated conditions. Compound activity is measured by effects on fractional shortening (FS), where fractional shortening is the ratio of the peak length of the cell at contraction divided by the basal cell length normalized to 100% for an untreated cell.

bovine cardiac myosin = bovine cardiac myosin (Bos taurus, UniProt Q9BE39); assay: Myosin inhibition assay (PK/LDH-coupled ATPase, bovine cardiac myofibrils); type: biochemical; details: calcium concentration giving 50% activation, pH 6.8, read-out: bcMF pCa_6 IC50
bovine cardiac myosin, sequence (Q9BE39 whole entry): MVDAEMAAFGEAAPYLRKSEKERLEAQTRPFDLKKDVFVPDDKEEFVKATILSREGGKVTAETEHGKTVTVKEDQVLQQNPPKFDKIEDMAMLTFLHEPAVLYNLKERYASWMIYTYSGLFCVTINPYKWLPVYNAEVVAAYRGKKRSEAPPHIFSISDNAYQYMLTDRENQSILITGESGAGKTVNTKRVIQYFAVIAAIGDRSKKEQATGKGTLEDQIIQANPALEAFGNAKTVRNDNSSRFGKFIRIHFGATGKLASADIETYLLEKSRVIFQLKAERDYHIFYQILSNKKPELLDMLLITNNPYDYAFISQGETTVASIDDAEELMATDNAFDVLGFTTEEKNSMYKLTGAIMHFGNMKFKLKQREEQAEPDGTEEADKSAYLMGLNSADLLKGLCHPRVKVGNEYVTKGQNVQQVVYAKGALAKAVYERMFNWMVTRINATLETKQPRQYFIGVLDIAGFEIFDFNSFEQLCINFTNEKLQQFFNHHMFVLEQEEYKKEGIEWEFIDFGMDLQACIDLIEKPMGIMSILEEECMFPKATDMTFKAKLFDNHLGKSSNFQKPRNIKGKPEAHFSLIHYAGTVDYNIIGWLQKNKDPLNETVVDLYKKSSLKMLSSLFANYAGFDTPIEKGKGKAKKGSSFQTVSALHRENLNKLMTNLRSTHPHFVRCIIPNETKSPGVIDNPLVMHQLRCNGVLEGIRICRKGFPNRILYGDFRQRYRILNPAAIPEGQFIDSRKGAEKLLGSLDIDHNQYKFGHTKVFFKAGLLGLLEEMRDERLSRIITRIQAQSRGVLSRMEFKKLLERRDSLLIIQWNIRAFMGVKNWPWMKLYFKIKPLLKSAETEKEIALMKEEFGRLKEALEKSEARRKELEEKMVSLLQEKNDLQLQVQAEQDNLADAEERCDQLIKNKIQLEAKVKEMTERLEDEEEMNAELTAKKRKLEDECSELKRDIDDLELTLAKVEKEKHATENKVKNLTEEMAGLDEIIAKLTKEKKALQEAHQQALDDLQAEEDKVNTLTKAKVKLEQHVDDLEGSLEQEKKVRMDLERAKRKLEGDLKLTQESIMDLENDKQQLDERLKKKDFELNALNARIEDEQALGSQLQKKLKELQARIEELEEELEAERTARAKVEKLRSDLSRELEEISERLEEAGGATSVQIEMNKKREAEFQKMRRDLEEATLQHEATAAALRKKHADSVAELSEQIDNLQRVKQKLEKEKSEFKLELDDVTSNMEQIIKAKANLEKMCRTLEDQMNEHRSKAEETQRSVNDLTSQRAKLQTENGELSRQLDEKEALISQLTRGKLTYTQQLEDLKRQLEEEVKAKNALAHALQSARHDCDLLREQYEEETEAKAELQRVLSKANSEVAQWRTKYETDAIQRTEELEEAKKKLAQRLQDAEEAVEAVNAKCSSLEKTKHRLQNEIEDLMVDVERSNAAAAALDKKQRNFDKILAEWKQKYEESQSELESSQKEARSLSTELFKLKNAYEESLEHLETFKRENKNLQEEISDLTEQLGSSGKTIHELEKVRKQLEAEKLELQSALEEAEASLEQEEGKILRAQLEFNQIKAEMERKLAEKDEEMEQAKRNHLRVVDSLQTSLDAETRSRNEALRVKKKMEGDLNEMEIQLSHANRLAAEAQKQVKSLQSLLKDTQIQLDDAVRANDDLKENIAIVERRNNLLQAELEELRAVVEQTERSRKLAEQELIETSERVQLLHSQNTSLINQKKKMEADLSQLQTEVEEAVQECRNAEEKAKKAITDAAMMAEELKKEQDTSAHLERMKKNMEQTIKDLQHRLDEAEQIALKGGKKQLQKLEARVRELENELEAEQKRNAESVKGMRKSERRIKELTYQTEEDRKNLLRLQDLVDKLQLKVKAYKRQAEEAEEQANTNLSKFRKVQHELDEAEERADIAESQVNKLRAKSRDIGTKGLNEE
bovine cardiac myosin, sequence (P85100 whole entry partner): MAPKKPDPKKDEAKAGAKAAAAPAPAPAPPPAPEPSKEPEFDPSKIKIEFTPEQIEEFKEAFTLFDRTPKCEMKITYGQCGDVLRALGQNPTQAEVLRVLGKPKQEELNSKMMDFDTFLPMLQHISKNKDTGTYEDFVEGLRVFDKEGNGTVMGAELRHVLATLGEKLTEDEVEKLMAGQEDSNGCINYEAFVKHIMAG
bovine cardiac myosin, sequence (Q3SZE5 whole entry partner): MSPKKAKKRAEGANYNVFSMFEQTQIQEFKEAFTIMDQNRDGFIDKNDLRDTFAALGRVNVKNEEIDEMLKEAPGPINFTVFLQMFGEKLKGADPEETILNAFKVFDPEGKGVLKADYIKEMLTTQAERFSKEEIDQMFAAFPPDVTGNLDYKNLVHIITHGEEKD
Method: Small molecule agents were assessed for their ability to inhibit the enzymatic activity of bovine cardiac myosin using a biochemical assay that couples the release of ADP (adenosine diphosphate) from cardiac myosin to an enzymatic coupling system consisting of pyruvate kinase and lactate dehydrogenase (PK/LDH) and monitoring the absorbance decrease of NADH (at 340 nm) as a function of time. PK converts ADP to ATP (adenosine triphosphate) by converting PEP (phosphoenolpyruvate) to pyruvate. Pyruvate is then converted to lactate by LDH by converting NADH (nicotinamide adenine dinucleotide) to NAD (oxidized nicotinamide adenine dinucleotide). […] Prior to testing small molecule agents, the bovine myofibrils were assessed for their calcium responsiveness and the calcium concentration that achieves a 50% activation of the myofibril system was chosen as the final condition for assessing the inhibitory activity of the small molecule agents. All enzymatic activity was measured in a buffered solution containing 12 mM PIPES (piperazine-N,N′-bis(2-ethanesulfonic acid), 2 mM magnesium chloride at pH 6.8 (PM12 buffer). Final assay conditions were 1 mg/mL of bovine cardiac myofibrils, 0.4 mM PK/LDH, 50 uM ATP, 0.1 mg/mL BSA (bovine serum albumin), 10 ppm antifoam, 2 mM BME, 0.5 mM NADH, 1.5 mM PEP at the desired free calcium concentration required to achieve 50% activation of the myofibrils.
A dilution series of compound was created in DMSO such that the final desired concentration of compound would be achieved in a volume of 30 μL with a fixed DMSO concentration of 3.3% (v/v). Typically 1 μL of the dilution series were added to 384 well plate to achieve an 10 point dose response. Following the addition of 14 μL of a solution containing bovine cardiac myofibrils, PK/LDH and a solution of calcium (that achieved 50% activation), the enzymatic reaction was started with the addition of 15 μL of a solution containing ATP, PEP and NADH. The reaction progress was followed in a PerkinElmer Envision plate reader at ambient temperature using clear bottom plates. The plate reader was configured to read absorbance at 340 nm in kinetics mode for 15 minutes. Data were recorded as the slope of the absorbance response to time. The slopes of the absorbance response as a function of time were normalized to slopes on the plate containing DMSO. This normalized rate was then plotted as a function of small molecule concentration and the data was fitted to a four-parameter fit using EXCEL XLfit. The IC50 is the concentration at which fifty percent of the total response is inhibited.

IC50 (bovine cardiac myosin)	Structure (SMILES)	inhibition at 0.3 µM [1]	inhibition at 1 µM [1]	inhibition at 0.1 µM [1]
< 1 µM	O=c1[nH]c2c(c(=O)n1-c1cc(F)cc(F)c1)CC[C@H](C1CCC(F)(F)CC1)N2 [Compound 2, (R)-7-(4,4-Difluorocyclohexyl)-3-(3,5-difluorophenyl)-5,6,7,8-tetrahydropyrido[2,3-d]pyrimidine-2,4(1H,3H)-dione]	< 33%	> 66%	
< 1 µM	CC(C)n1c(=O)[nH]c2c(c1=O)CC[C@H](c1ccc(F)cc1F)N2 [Compound 6, (R)-7-(2,4-Difluorophenyl)-3-isopropyl-5,6,7,8-tetrahydropyrido[2,3-d]pyrimidine-2,4(1H,3H)-dione]	33 to 66%	> 66%	
1 to 15 µM	CCn1c(=O)[nH]c2c(c1=O)CC[C@H](c1ccc(F)c(F)c1)N2 [Compound 9, (R)-7-(3,4-Difluorophenyl)-3-ethyl-5,6,7,8-tetrahydropyrido[2,3-d]pyrimidine-2,4(1H,3H)-dione]		33 to 66%	
1 to 15 µM	CCn1c(=O)[nH]c2c(c1=O)CC[C@H](c1ccccc1F)N2 [Compound 14]	< 33%	> 66%	
1 to 15 µM	CC[C@H](C)n1c(=O)[nH]c2c(c1=O)CC[C@H](c1ccc(F)c(F)c1)N2 [Compound 18]	33 to 66%		
1 to 15 µM	CCn1c(=O)[nH]c2c(c1=O)CC[C@H](c1ccc(F)cc1)N2 [Compound 20]		33 to 66%	
1 to 15 µM	O=c1[nH]c2c(c(=O)n1CC(F)F)CC[C@H](c1ccc(F)c(F)c1)N2 [Compound 22]		33 to 66%	
< 1 µM	O=c1[nH]c2c(c(=O)n1C1CCC1)CC[C@H](C1CCC(F)(F)CC1)N2 [Compound 31]	33 to 66%		
< 1 µM	CC(C)n1c(=O)[nH]c2c(c1=O)CC[C@H](C1CCC(F)(F)CC1)N2 [Compound 46]		> 66%	
1 to 15 µM	O=c1[nH]c2c(c(=O)n1-c1ccccc1)CC[C@H](c1ccc(F)c(F)c1)N2 [Compound 48]	< 33%	< 33%	
1 to 15 µM	CCn1c(=O)[nH]c2c(c1=O)CC[C@H](C1CCC(F)(F)CC1)N2 [Compound 53]		33 to 66%	
1 to 15 µM	CC(C)n1c(=O)[nH]c2c(c1=O)CC[C@H](c1ccc(F)cc1)N2 [Compound 67]	33 to 66%		
1 to 15 µM	O=c1[nH]c2c(c(=O)n1CC(F)(F)F)CC[C@H](c1ccc(F)c(F)c1)N2 [Compound 70]		33 to 66%	
1 to 15 µM	CC1(n2c(=O)[nH]c3c(c2=O)CC[C@H](c2ccc(F)c(F)c2)N3)CC1 [Compound 81]		33 to 66%	
< 1 µM	CC[C@@H](C)n1c(=O)[nH]c2c(c1=O)CC[C@H](c1ccc(F)c(F)c1)N2 [Compound 83]	33 to 66%		
1 to 15 µM	Cn1c(=O)[nH]c2c(c1=O)CC[C@](C)(c1cc(F)ccc1F)N2 [Compound 118]			
1 to 15 µM	CCn1c(=O)[nH]c2c(c1=O)CC[C@](C)(c1cc(F)ccc1F)N2 [Compound 119]			
1 to 15 µM	CC1(n2c(=O)[nH]c3c(c2=O)CC[C@H](c2cc(F)ccc2F)N3)CC1 [Compound 120]			
1 to 15 µM	CC1(n2c(=O)[nH]c3c(c2=O)CC[C@H](c2cccc(F)c2)N3)CC1 [Compound 121]			
1 to 15 µM	Cc1ccccc1[C@H]1CCc2c([nH]c(=O)n(C3(C)CC3)c2=O)N1 [Compound 122]			
1 to 15 µM	CCn1c(=O)[nH]c2c(c1=O)CC[C@](CC)(c1ccccc1)N2 [Compound 123]			
1 to 15 µM	Cc1cccc([C@H]2CCc3c([nH]c(=O)n(C4(C)CC4)c3=O)N2)c1 [Compound 124]			

IC50 (bovine cardiac myosin)	Structure (SMILES)	inhibition at 0.3 µM [1]	inhibition at 1 µM [1]	inhibition at 0.1 µM [1]
1 to 15 µM	COC(=O)N1CCC(n2c(=O)[nH]c3c(c2=O)CC[C@](C)(c2ccc(F)c(F)c2)N3)CC1 [Compound 125]			
1 to 15 µM	Cn1c(=O)[nH]c2c(c1=O)CC[C@](C)(c1cccc(F)c1)N2 [Compound 126, (R)-7-(3-Fluorophenyl)-3,7-dimethyl-5,6,7,8-tetrahydropyrido[2,3-d]pyrimidine-2,4(1H,3H)-dione]			
< 1 µM	C[C@]1(c2cccc(F)c2)CCc2c([nH]c(=O)n(-c3ccccc3)c2=O)N1 [Compound 127]			
< 1 µM	C[C@]1(c2cccc(F)c2)CCc2c([nH]c(=O)n(C3CCOCC3)c2=O)N1 [Compound 128]			
< 1 µM	CC(C)n1c(=O)[nH]c2c(c1=O)CC(F)(F)[C@H](c1cccc(Cl)c1)N2 [Compound 129]			
> 15 µM	CC(C)n1c(=O)[nH]c2c(c1=O)CC(F)(F)[C@@H](c1cccc(Cl)c1)N2 [Compound 130]			
1 to 15 µM	CCn1c(=O)[nH]c2c(c1=O)CC[C@@](c1ccccc1)(C(C)C)N2 [Compound 131]			
> 15 µM	CCn1c(=O)[nH]c2c(c1=O)CC[C@@](c1ccccc1)(C(C)C)N2 [Compound 132]			
1 to 15 µM	CCC[C@]1(c2ccccc2)CCc2c([nH]c(=O)n(CC)c2=O)N1 [Compound 133]			
< 1 µM	C[C@]1(c2cc(F)ccc2F)CCc2c([nH]c(=O)n(C3CCC3)c2=O)N1 [Compound 134]			
< 1 µM	C[C@]1(c2cc(F)ccc2F)CCc2c([nH]c(=O)n(-c3cc(F)cc(F)c3)c2=O)N1 [Compound 135]			
< 1 µM	C[C@]1(c2cccc(F)c2)CCc2c([nH]c(=O)n(CC(F)F)c2=O)N1 [Compound 136]			
< 1 µM	C[C@]1(c2cccc(F)c2)CCc2c([nH]c(=O)n(CC(F)(F)F)c2=O)N1 [Compound 137]			
< 1 µM	C[C@]1(c2cc(F)ccc2F)CCc2c([nH]c(=O)n(C3CC3)c2=O)N1 [Compound 138]			
< 1 µM	C[C@]1(c2ccccc2)CCc2c([nH]c(=O)n(-c3ccccc3)c2=O)N1 [Compound 139]			
1 to 15 µM	CC(C)n1c(=O)[nH]c2c(c1=O)CC(F)(F)[C@](C)(c1ccccc1)N2 [Compound 140]			
1 to 15 µM	COC(=O)N1CCC([C@H]2CCc3c([nH]c(=O)n(C(C)C)c3=O)N2)CC1 [Compound 141]			
< 1 µM	CCn1c(=O)[nH]c2c(c1=O)CC[C@@](c1ccccc1)(C1CCOCC1)N2 [Compound 142]			
1 to 15 µM	CCn1c(=O)[nH]c2c(c1=O)CC[C@](c1ccccc1)(C1CCOCC1)N2 [Compound 143]			
> 15 µM	CCn1c(=O)[nH]c2c(c1=O)C[C@](C)(c1ccccc1)N2 [Compound 144]			
< 1 µM	CCn1c(=O)[nH]c2c(c1=O)CC[C@@](c1ccccc1)(C1CCC1)N2 [Compound 145]			
> 15 µM	CCn1c(=O)[nH]c2c(c1=O)CC[C@](c1ccccc1)(C1CCC1)N2 [Compound 146]			

Structure (SMILES)	IC50 (bovine cardiac myosin)	inhibition at 0.3 µM [1]	inhibition at 1 µM [1]	inhibition at 0.1 µM [1]
CC(C)n1c(=O)[nH]c2c(c1=O)CC[C@H](c1ccc(F)c(F)c1)N2 [Compound 4, (7R)-7-(3,4-difluorophenyl)-3-isopropyl-5,6,7,8-tetrahydropyrido[2,3-d]pyrimidine-2,4(1H,3H)-dione]	1 to 15 µM	33 to 66%		< 33%
CC(C)n1c(=O)[nH]c2c(c1=O)CC[C@H](c1cccc(F)c1)N2 [Compound 68, (R)-7-(3-Fluorophenyl)-3-isopropyl-5,6,7,8-tetrahydropyrido[2,3-d]pyrimidine-2,4(1H,3/H)-dione]	1 to 15 µM			> 66%
CC(C)n1c(=O)[nH]c2c(c1=O)CC[C@H](c1ccccc1F)N2 [Compound 69, (R)-7-(2-Fluorophenyl)-3-isopropyl-5,6,7,8-tetrahydropyrido[2,3-d]pyrimidine-2,4(1H,3H)-dione]	1 to 15 µM			> 66%
